Laboratory results reported in patent US20240425589A1, “CYTOTOXICITY-INDUCING THERAPEUTIC AGENT FOR USE IN TREATMENT OF CANCER” (CHUGAI SEIYAKU KABUSHIKI KAISHA, priority 2021, published 2024).
Structures can show the parent of a compound that is named as a salt.

Key:
[1] = system: TGF-β1 expression in cancer cells; settings: reported in literature; cited from earlier work
[2] = system: TGF-β1 expression in NIH:OVCAR-3; assay: TGF-β1 expression by quantitative PCR after chemotherapeutic agents; type: cell-based, human; settings: 6 days; same treated cells as Example 21.1; vs untreated
Protocol: Next, the cDNAs prepared from the human ovarian cancer cell line (NIH:OVCAR-3, ATCC) treated with carboplatin, cisplatin, irinotecan, or gemcitabine, which were used in Example 21.1, were used to perform real-time PCR with TGF-β1-specific primers (Power SYBR (registered trademark) Green Master Mix, ThermoFisher), and TGF-β1 expression was analyzed (QuantStudio 12K Flex Real-Time PCR System, ThermoFisher).
Sequences of the primers for human TGF-β1 are as follows: […]
The same primers as those in the above-mentioned Example 21.1 were used as the primers for human GAPDH used as the internal control.

[3] = system: CLDN6 expression in NIH:OVCAR-3; assay: CLDN6 expression by quantitative PCR after chemotherapeutic agents; type: cell-based, human; settings: 6 days; carboplatin 0.5 μg/mL, cisplatin 0.1 μg/mL, irinotecan 0.25 μg/mL, gemcitabine 2 ng/mL; vs untreated
Protocol: Various chemotherapeutic agents were added to human ovarian cancer cell line (NIH:OVCAR-3, ATCC) to analyze the change in CLDN6 expression. Regarding the NIH:OVCAR-3 cells seeded on culture plates, RNAs were purified (RNeasy Mini Kit, QIAGEN) from cells to which no pharmaceutical agent was added (untreated cells), or from cells collected 6 days after addition of carboplatin (0.5 μg/mL), cisplatin (0.1 μg/mL), irinotecan (0.25 μg/mL), or gemcitabine (2 ng/mL), and then cDNA synthesis (Superscript IV VILO Master Mix, ThermoFisher) was performed. By using the cDNAs as templates, real-time PCR was performed using CLDN6-specific primers (Power SYBR (registered trademark) Green Master Mix, ThermoFisher) to analyze CLDN6 expression (QuantStudio 12K Flex Real-Time PCR System, ThermoFisher). Sequences of the primers for human CLDN6 and the primers for human GAPDH that were used as the internal control are as follows: […]

[4] = system: CLDN6 expression in OV-90; assay: CLDN6 expression by FACS after PARP inhibitor, OV-90; type: cell-based, human; settings: BRAC1 wildtype OV-90, 0.03-3 μM, 3 days
Protocol: (§1) Induction of CLDN6 expression by a PARP inhibitor (olaparib) was assessed. BRCA1-deficient ovarian cancer cell line UWB1.289 (ATCC) or BRAC1 wildtype ovarian cancer cell line OV-90 (ATCC) which express human CLDN6 were used.
(§2) Target cells (3×10^5 cells) were plated onto a 6-well plate at 3 mL/well. After culturing overnight, olaparib was added at a final concentration of 0.03, 0.1, 0.3, 1, or 3 μM. DMSO was added to the control well. After incubating the plate for 3 days, the cells were recovered and the amount of CLDN6 expression on the cell surface was determined by FACS analysis using an anti-CLDN6 antibody. The level of fluorescence in the target cells recovered from the wells, to which various concentrations of olaparib were added, are shown in FIG. 27, wherein the level of fluorescence in the target cells recovered from the control well was defined as 1.

[5] = system: CLDN6 expression in UWB1.289; assay: CLDN6 expression by FACS after PARP inhibitor, UWB1.289; type: cell-based, human; settings: BRCA1-deficient UWB1.289, 0.03-3 μM, 3 days
Protocol: as §1, §2

NIH:OVCAR-3 = assay: OVCAR3 xenograft in huNOG mice, combination with irinotecan hydrochloride; type: in vivo; settings: 60 days after transplantation; CS4135 0.1 mg/kg, irinotecan hydrochloride 25 mg/kg, iv days 39, 46
Protocol: In this test, NOG(huNOG) mice (described in the aforementioned Example 13) transplanted with ovarian cancer cell line NIH:OVCAR-3 (OVCAR3, ATCC) and human CD34-positive cells were used. The OVCAR3 cell line was transplanted subcutaneously to the right flank of the mice, and the mice were divided into groups 39 days after transplantation. Individuals whose tumor volume reached 160 to 263 mm^3 were divided into groups. Vehicle 1 and CS4135 were administered into the mouse tail vein 39 and 46 days after transplantation. PBS containing 0.05% Tween-20 was used as Vehicle 1. Vehicle 2 and irinotecan hydrochloride (Sawai Pharmaceutical Co., Ltd.) were administered into the mouse tail vein 39 and 46 days after transplantation. Physiological saline was used as Vehicle 2.
Tumor volume was measured 39, 42, 46, 49, 53, 57, and 60 days after transplantation, and the average tumor volume is indicated for each group. The tumor volume was calculated by the following equation: […]
(§3) Tumor Growth Inhibition (TGI) was calculated by the following equation: […]

OVCAR3 = OVCAR3 xenograft in huNOG mice, combination with carboplatin; type: in vivo; settings: 56 days after transplantation; CS4135 0.1 mg/kg iv days 38, 45 (sequential: 48, 55), carboplatin 60 mg/kg ip days 38, 45
Protocol: In this test, NOG (huNOG) mice (described in the aforementioned Example 13) transplanted with ovarian cancer cell line OVCAR3 and human CD34-positive cells were used. The OVCAR3 cell line was transplanted subcutaneously to the right flank of the mice, and the mice were divided into groups 38 days after transplantation. Individuals whose tumor volume reached 119 to 210 mm^3 were divided into groups. Vehicle 1 and CS4135 were administered into the mouse tail vein 38 and 45 days after transplantation. PBS containing 0.05% Tween-20 was used as Vehicle 1. Vehicle 2 and carboplatin (Bristol Myers Squibb Company) were administered intraperitoneally to the mice 38 and 45 days after transplantation. Physiological saline was used as Vehicle 2.
Tumor volume was measured 38, 42, 45, 48, 52, and 56 days after transplantation, and the average tumor volume was indicated for each group. The tumor volume was calculated by the following equation: […]
as §3

[6] = system: CLDN6 expression in SNG-M tumor; assay: CLDN6 expression by real-time PCR in SNG-M tumor transplant; type: in vivo, NOD/scid mice; settings: 40 mg/kg or 80 mg/kg ip twice, vs vehicle
Protocol: SNG-M (1×10^7 cells) was transplanted subcutaneously to NOD/scid mice (CLEA Japan). After tumor engraftment, the vehicle (physiological saline) or carboplatin at 40 mg/kg or 80 mg/kg was administered intraperitoneally on the day of transplantation (day 0) and 3 days after transplantation (day 3), and the tumor was sampled 6 days after transplantation (day 6).
RNA was purified from the tumor (RNeasy Mini Kit, QIAGEN), and then cDNA synthesis was performed (Superscript IV VILO Master Mix, ThermoFisher). Using the cDNAs as templates, real-time PCR was performed using a CLDN6-specific primer (Power SYBR (registered trademark) Green Master Mix, ThermoFisher) to analyze CLDN6 expression (QuantStudio 12K Flex Real-Time PCR System, ThermoFisher).
Sequences of the primers for human CLDN6 and primers for human GAPDH used as an internal control are as follows: […]

SNG-M = SNG-M xenograft in huNOG mice, combination with carboplatin; type: in vivo; settings: 30 days after transplantation; CS4135 0.5 mg/kg iv day 13, carboplatin 40 mg/kg ip days 13, 16, 20
Protocol: In this test, NOG (huNOG) mice (described in the aforementioned Example 13) transplanted with human uterus cancer cell line SNG-M and human CD34-positive cells were used. The SNG-M cell line was transplanted subcutaneously to the right flank of the mice, and the mice were divided into groups 13 days after transplantation. Individuals whose tumor volume reached 130 to 244 mm^3 were divided into groups. Vehicle 1 and CS4135 were administered into the mouse tail vein 13 days after transplantation. PBS containing 0.05% Tween-20 was used as Vehicle 1. Vehicle 2 and carboplatin (Bristol Myers Squibb Company) were administered intraperitoneally to the mice 13, 16, and 20 days after transplantation. Physiological saline was used as Vehicle 2.
Tumor volume was measured 13, 16, 20, 23, 26, and 30 days after transplantation, and the average tumor volume was indicated for each group.
The tumor volume was calculated by the following equation: […]
as §3

[7] = system: CLDN6 expression in NIH-OVCAR3, NCI-H1435, SNG-M; assay: CLDN6 expression by FACS after platinum preparation treatment; type: cell-based, human; settings: 5 days; cisplatin 0.1 or 0.6 μg/mL, carboplatin 0.5 or 5 μg/mL; vs untreated
Protocol: Human ovarian cancer cell line (NIH-OVCAR3, ATCC), human lung cancer cell line (NCI-H1435, ATCC), and human endometrial cancer cell line (SNG-M, Health Science Research Resources Bank) were treated with cisplatin (CDDP, Nichiiko) or carboplatin (CBDCA, Sandoz) to analyze the effect of the treatment on CLDN6 expression.
Each cell was subjected to the addition of cisplatin at 0.1 μg/mL (OVCAR3) or 0.6 μg/mL (H1435, SNG-M), or carboplatin at 0.5 μg/mL (OVCAR3) or 5 μg/mL (H1435, SNG-M), and then cultured for five days. After culturing, the cells were recovered, and CLDN6 expression was analyzed by FACS.
In FACS analysis, cells were detached from the culturing flask and then reacted with an anti-CLDN6 antibody (AE3-20 mIgG2a, Japanese Patent No. 5848863) or an isotype antibody (mIgG2a, BioLegend) at 2 μg/mL, at 4° C. for one hour. Next, reaction with Alexa Flour 488-labeled anti-mouse IgG (ThermoFisher) at 10 μg/mL was performed at 4° C. for one hour, and the amount of CLDN6 expression was analyzed using a flow cytometer (FACSVerse, BD Biosciences).

In the case of `CC(=O)O[C@H]1C(=O)[C@@]2(C)[C@H]([C@H](OC(=O)c3ccccc3)[C@]3(O)C[C@H](OC(=O)[C@H](O)[C@@H](NC(=O)c4ccccc4)c4ccccc4)C(C)=C1C3(C)C)[C@]1(OC(C)=O)CO[C@@H]1C[C@@H]2O` [paclitaxel], the “expression of TGF-β1 in cancer cells” value [1] is given as “induce expression of TGF-β11 in cancer cells”.

In the case of `CCc1c2c(nc3ccc(OC(=O)N4CCC(N5CCCCC5)CC4)cc13)-c1cc3c(c(=O)n1C2)COC(=O)[C@]3(O)CC` [irinotecan], the TGF-β1 expression [2] is reported as “Increase in TGF-β1 expression was observed” and the CLDN6 expression [3] is reported as “Increase in CLDN6 expression was observed”.

With `O=C(c1cc(Cc2n[nH]c(=O)c3ccccc23)ccc1F)N1CCN(C(=O)C2CC2)CC1` [olaparib] the CLDN6 expression induction [4] was “enhancement of CLDN6 expression induction was not observed at any concentration” and the CLDN6 expression induction [5] was “concentration-dependent enhancement of CLDN6 expression induction was observed”.

For `Nc1ccn([C@@H]2O[C@H](CO)[C@@H](O)C2(F)F)c(=O)n1` [gemcitabine], the TGF-β1 expression [2] was “Increase in TGF-β1 expression was observed” and the CLDN6 expression [3] was “Increase in CLDN6 expression was observed”.

With `CCc1c2c(nc3ccc(OC(=O)N4CCC(N5CCCCC5)CC4)cc13)-c1cc3c(c(=O)n1C2)COC(=O)[C@]3(O)CC` [Irinotecan hydrochloride, irinotecan hydrochloride, reference compound] the “Tumor growth inhibition: TGI” value (NIH:OVCAR-3) was 65%.

With `N.N.O=C([O-])C1(C(=O)[O-])CCC1.[Pt+2]` [Carboplatin, carboplatin] the “Tumor growth inhibition: TGI” value (OVCAR3) was −9%, the “CLDN6 expression in the tumor” value [6] was “increased” and the TGF-β1 expression [2] was “Increase in TGF-β1 expression was observed”. For the same compound, the “Tumor growth inhibition: TGI” value (SNG-M) was 44%, the CLDN6 expression [3] was “Increase in CLDN6 expression was observed” and the CLDN6 expression [7] was “increase in CLDN6 expression”.

With `N.N.[Cl][Pt][Cl]` [cisplatin] the TGF-β1 expression [2] was “Increase in TGF-β1 expression was observed”, the CLDN6 expression [3] was “Increase in CLDN6 expression was observed” and the CLDN6 expression [7] was “increase in CLDN6 expression”.

For `COc1cccc2c1C(=O)c1c(O)c3c(c(O)c1C2=O)C[C@@](O)(C(=O)CO)C[C@@H]3O[C@H]1C[C@H](N)[C@H](O)[C@H](C)O1` [doxorubicin], the “expression of TGF-β1 in cancer cells” value [1] is given as “induce expression of TGF-β11 in cancer cells”.
